Experiment [1] has as its system HepG2 cells. The experiment can be described thus: TG-HDL2 internalization by HepG2 cells. The following applies: 10 min at 37° C.; for effect on the stimulation by ADP of the TG-HDL2 internalization: ADP 100 nM + A2P5P 100 μM or MRS2179 10 μM. The experiment is classed as cell-based, human. The procedure:
Cells were incubated for 10 minutes at 37° C. with 75 μg/ml^125I-TG-HDL2 without (control) or with apolipoprotein A-I 10 μg/ml (a), ADP 100 nM (b), AR-C69931MX 100 nM (c), ADP 100 nM+AR-C69931MX 100 nM (d), ADP 100 nM+[…] 100 μM (e), ADP 100 nM+MRS2179 10 μM (f). […] Internalization assays were performed as described in Guendouzi et al., (Biochemistry, 1998, 37: 14974-80) on HepG2 cells, obtained from the American Type Culture Collection ([…]). Cells were incubated for 10 minutes at 37° C. with 75 μg/ml of either ^125I-TG-HDL2, ^125I-HDL3 or ^125I-LDL. After washing and dissociation at 4° C. in phosphate buffered saline (PBS), cell radioactivity was determined using a Wallac 1261 multigamma apparatus. Prior experiments, cells were plated in polylysine-coated 24-multiwell plates (Falcon) at 4×10^4 cells per well. Cells were grown in Dulbecco's modified Eagles medium supplemented with 10% fetal calf serum, 100 units/ml penicillin, and 100 μg/ml streptomycin at 37° C. in a 5% CO2 and 95% air incubator. Medium was changed every 2 or 3 days, and the cells were subcultured every 7-8 days. Results are expressed as a percentage of internalization with respect to the control value (set at 0). Control corresponded to a basal value of internalization, amounting to 400 ng, 300 ng, 200 ng of TG-HDL2, HDL3 and LDL per mg of cells protein respectively for 10 minutes. Data as a mean ±SEM of at least 7, 5, 6 independent experiments, for TG-HDL2, HDL3 and LDL respectively.

Experiment [2] addresses T1, human P2Y13 receptor (Homo sapiens, UniProt Q9BPV8).
T1 construct: host or cells: HepG2
T1 sequence (Q9BPV8 1-354): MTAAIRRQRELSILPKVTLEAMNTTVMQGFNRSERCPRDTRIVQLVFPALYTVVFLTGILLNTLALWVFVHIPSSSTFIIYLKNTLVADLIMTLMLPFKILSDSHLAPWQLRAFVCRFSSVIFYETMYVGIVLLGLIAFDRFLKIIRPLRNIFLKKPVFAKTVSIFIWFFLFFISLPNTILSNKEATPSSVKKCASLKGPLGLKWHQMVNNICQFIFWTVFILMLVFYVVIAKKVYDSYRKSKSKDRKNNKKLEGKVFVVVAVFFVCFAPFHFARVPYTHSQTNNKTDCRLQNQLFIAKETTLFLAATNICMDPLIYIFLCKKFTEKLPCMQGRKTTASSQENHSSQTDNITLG
The experiment can be described thus: TG-HDL2 internalization by HepG2 cells after P2Y13 receptor silencing by siRNA. The following applies: HepG2, P2Y13 siRNA 100 nM, 48 h; apoA-I 10 μg/ml, ADP 100 nM, AR-C69931MX 100 nM. Type of experiment: cell-based. The method, then: Experiment was performed as in FIG. 2A with non-specific control siRNA (a, b, c) or with siRNA directed to human P2Y13 receptor (d, e, f, g) (n>7); (*) p<0.05 (unpaired t-test).
(§1) Internalization assays were performed as described in Guendouzi et al., (Biochemistry, 1998, 37: 14974-80) on HepG2 cells, obtained from the American Type Culture Collection ([…]). Cells were incubated for 10 minutes at 37° C. with 75 μg/ml of either ^125I-TG-HDL2, ^125I-HDL3 or ^125I-LDL. After washing and dissociation at 4° C. in phosphate buffered saline (PBS), cell radioactivity was determined using a Wallac 1261 multigamma apparatus.
(§2) The silencing of the different P2Y receptors were carried-out using the siRNA technique. The siRNA sequenced targeting human P2Y13 receptor (Gene Bank GB/EMBL/DDBJ accession number AF295368) was from position 406 or 359 relative to the start codon. The siRNA duplex (21-nt-RNAs) in deprotected and desalted form, the siRNA targeting human P2Y1 receptor (a mix of 4 siRNAs, M-005689), and the non-specific control siRNA (D-001206-01) were purchased from Dharmacon Inc. Subconfluent HepG2 cells were transiently transfected with siRNAs (final concentration, 100 nM) using Oligofectamine™ according to the manufacturer's protocole (Invitrogen). Cells were usually assayed 48 hours after transfection. Specific silencing effect was confirmed by at least three independent experiments.
Results are expressed as a percentage of internalization with respect to the control value (set at 0). Control corresponded to a basal value of internalization, amounting to 400 ng, 300 ng, 200 ng of TG-HDL2, HDL3 and LDL per mg of cells protein respectively for 10 minutes. Data as a mean ±SEM of at least 7, 5, 6 independent experiments, for TG-HDL2, HDL3 and LDL respectively.

Experiment [3] addresses T2, human P2Y1 receptor (Homo sapiens, UniProt P47900).
T2 construct: host or cells: HepG2
The experiment in a line: TG-HDL2 internalization by HepG2 cells after P2Y1 receptor silencing by siRNA. The experiment is classed as cell-based. The following applies: HepG2, pool of 4 P2Y1 siRNAs 100 nM, 48 h; apoA-I 10 μg/ml, ADP 100 nM, AR-C69931MX 100 nM. The procedure:
HepG2 cells were transiently transfected with siRNA designated to human P2Y1 receptor (columns d, e, f, g) or with non specific siRNA as control (a, b, c). 48 hours later, cells were incubated for 10 minutes at 37° C. with 75 μg/ml ^125I-TG HDL2 without (control) or with apolipoprotein A-I 10 μg/ml (a and d), ADP 100 nM (b and e), AR-C69931MX 100 nM (c and f), PBS (g). Data are expressed as a percentage of internalized radioactivity with respect to the control value (set as 0) (n>5); (*) p<0.05 (unpaired t-test).
as §1, §2
Results are expressed as a percentage of internalization with respect to the control value (set at 0). Control corresponded to a basal value of internalization, amounting to 400 ng, 300 ng, 200 ng of TG-HDL2, HDL3 and LDL per mg of cells protein respectively for 10 minutes. […]

This is an account of results in patent publication US20070249555A1, “Use of Atp Analogues for Treatment of Cardiovascular Diseases” (INSTITUT NATIONAL DE LA SANTE ET DE LA RECHERCHE MEDICALE …, priority 2004, published 2007).

T2 sequence (P47900 whole entry): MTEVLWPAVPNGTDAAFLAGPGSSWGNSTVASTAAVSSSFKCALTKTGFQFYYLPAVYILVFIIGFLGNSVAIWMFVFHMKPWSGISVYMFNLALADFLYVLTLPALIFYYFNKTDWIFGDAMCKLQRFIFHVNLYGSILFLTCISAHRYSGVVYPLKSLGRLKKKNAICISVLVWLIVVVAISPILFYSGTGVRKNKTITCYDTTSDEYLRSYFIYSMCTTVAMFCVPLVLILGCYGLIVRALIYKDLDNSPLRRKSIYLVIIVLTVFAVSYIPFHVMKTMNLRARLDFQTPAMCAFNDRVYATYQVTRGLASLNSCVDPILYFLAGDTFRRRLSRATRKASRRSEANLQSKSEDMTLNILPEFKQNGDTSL

Take `CNc1ncnc2c1ncn2[C@H]1C[C@H](OP(=O)(O)O)[C@@H](COP(=O)(O)O)O1` [MRS2179]: in experiment [1], the “effect on the stimulation by ADP of the TG-HDL2 internalization” value is “no effect”.
As to “apoA-I: HDL apolipoprotein A-I; generates ADP through activation of the ectopic form of ATP synthase”, the “effect of P2Y13 receptor silencing on TG-HDL2 endocytosis after stimulation” value in experiment [2] was “dramatic inhibition”. Besides, the “effect of P2Y1 receptors silencing on the stimulation of TG-HDL2 endocytosis” value in experiment [3] is “no effect”. Moreover, the “internalization of 125I-TG-HDL2 by HepG2 cells, increase above control cells” value in experiment [1] (75 μg/ml 125I-TG-HDL2, apoA-I 10 μg/ml, ADP 100 nM, AR-C69931MX 100 nM alone) is reported as 20%.
`Nc1ncnc2c1ncn2[C@@H]1O[C@H](COP(=O)(O)O)[C@@H](O)[C@H]1OP(=O)(O)O` [A2P5P]: in experiment [1], the “effect on the stimulation by ADP of the TG-HDL2 internalization” value is “no effect”.
